Experimental data taken from ChEMBL document CHEMBL1201862, “PubChem BioAssay data set” (2004).
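1) Cells in 96-well plates. 2) Compound, 48 h, 5 concentrations. 3) Linear interpolation between surrounding doses. 4) Unreached endpoint = highest concentration. GI50 marks 50% less growth.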 Activity calls are given as the source filed them. Cut-off read from the data, not from the text of the source: active = GI50 up to about 1.1 µM and inactive = higher.

Assays:
Assay in all cases: inhibition of tumour cell growth, NCI panel, 48 h
A549 = tested on: A549
EKVX = tested on: EKVX
786-0 = tested on: 786-0
NCI-H522 = tested on: NCI-H522
SW-620 = tested on: SW-620
Hs-578T = tested on: Hs-578T
HCT-15 = tested on: HCT-15
SK-MEL-28 = tested on: SK-MEL-28
SN12C = tested on: SN12C
SF-268 = tested on: SF-268
SNB-75 = tested on: SNB-75
PC-3 = tested on: PC-3
ACHN = tested on: ACHN
T47D = tested on: T47D
MDA-MB-435 = tested on: MDA-MB-435
OVCAR-5 = tested on: OVCAR-5
RPMI-8226 = tested on: RPMI-8226
HT-29 = tested on: HT-29
K562 = tested on: K562
OVCAR-4 = tested on: OVCAR-4
DU-145 = tested on: DU-145
OVCAR-8 = tested on: OVCAR-8
NCI-H460 = tested on: NCI-H460
Malme-3M = tested on: Malme-3M
COLO 205 = tested on: COLO 205
CCRF-CEM = tested on: CCRF-CEM
IGROV-1 = tested on: IGROV-1
SF-295 = tested on: SF-295
SR = tested on: SR
SK-MEL-5 = tested on: SK-MEL-5
SK-MEL-2 = tested on: SK-MEL-2
HCT-116 = tested on: HCT-116
MDA-N = tested on: MDA-N
NCI-H23 = tested on: NCI-H23
KM12 = tested on: KM12
HOP-62 = tested on: HOP-62
U-251 = tested on: U-251
M14 = tested on: M14
MDA-MB-231 = tested on: MDA-MB-231
SK-OV-3 = tested on: SK-OV-3
UACC-62 = tested on: UACC-62
HL-60 = tested on: HL-60
NCI/ADR-RES = tested on: NCI/ADR-RES
UACC-257 = tested on: UACC-257
HCC 2998 = tested on: HCC 2998
UO-31 = tested on: UO-31
SNB-19 = tested on: SNB-19
CAKI-1 = tested on: CAKI-1
RXF 393 = tested on: RXF 393
A498 = tested on: A498
MOLT-4 = tested on: MOLT-4
LOX IMVI = tested on: LOX IMVI
OVCAR-3 = tested on: OVCAR-3
SF-539 = tested on: SF-539
MCF7 = tested on: MCF7
TK-10 = tested on: TK-10
BT-549 = tested on: BT-549
HOP-92 = tested on: HOP-92

Measured: GI50

CCCNc1ncnc2[nH]ncc12
> 100 µM: HCT-15
inactive: A549 > 100 µM | EKVX > 100 µM | 786-0 > 100 µM | NCI-H522 > 100 µM | SW-620 > 100 µM | Hs-578T > 100 µM | SK-MEL-28 > 100 µM | SN12C > 100 µM | SF-268 > 100 µM | SNB-75 > 100 µM | PC-3 > 100 µM | ACHN > 100 µM | T47D > 100 µM | MDA-MB-435 > 100 µM | OVCAR-5 > 100 µM | RPMI-8226 > 100 µM | HT-29 > 100 µM | K562 > 100 µM | OVCAR-4 > 100 µM | DU-145 > 100 µM | OVCAR-8 > 100 µM | NCI-H460 > 100 µM | Malme-3M > 100 µM | COLO 205 > 100 µM | CCRF-CEM > 100 µM | IGROV-1 > 100 µM | SF-295 > 100 µM | SR > 100 µM | SK-MEL-5 > 100 µM | SK-MEL-2 > 100 µM | HCT-116 > 100 µM | MDA-N > 100 µM | NCI-H23 > 100 µM | KM12 > 100 µM | HOP-62 > 100 µM | U-251 > 100 µM | M14 > 100 µM | MDA-MB-231 > 100 µM | SK-OV-3 > 100 µM | UACC-62 > 100 µM | HL-60 > 100 µM | NCI/ADR-RES > 100 µM | UACC-257 > 100 µM | HCC 2998 > 100 µM | UO-31 > 100 µM | SNB-19 > 100 µM | CAKI-1 > 100 µM | RXF 393 > 100 µM | A498 > 100 µM | MOLT-4 > 100 µM | LOX IMVI > 100 µM | OVCAR-3 > 100 µM | SF-539 > 100 µM | MCF7 91.4 µM | TK-10 > 100 µM | BT-549 > 100 µM | HOP-92 87.5 µM
